Measured values from US20160095843A1, “PYRAZOLOPYRROLIDINE DERIVATIVES AND THEIR USE IN THE TREATMENT OF DISEASE” (NOVARTIS AG, priority 2013, published 2016).

Experiments:
MV-4-11 cells = experiment: Cell growth inhibition assay (CellTiter-Glo), MV-4-11; type: cell-based; details: Homo sapiens, MV4-11
Procedure, shortened: (§1)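 Cellular ATP (CellTiter-Glo luminescence) measured after 4 days at 37° C., 5% CO2 of compound exposure, top concentration 10 μM in 3-fold steps, 0.1% DMSO. Readings corrected for no-cell background and a day-0 plate, normalised to vehicle and medium wells; half-maximal and total growth inhibition from four-parameter curves.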

K-562 cells = experiment: Cell growth inhibition assay (CellTiter-Glo), K-562; type: cell-based, human; details: Homo sapiens, K562
Procedure, shortened: as §1

THP-1 cells = experiment: Cell growth inhibition assay (CellTiter-Glo), THP-1; type: cell-based; details: Homo sapiens
Procedure, shortened: as §1

| GI50 (MV-4-11 cells) [nM] | GI50 (K-562 cells) [nM] | GI50 (THP-1 cells) [nM] | SMILES |
| --- | --- | --- | --- |
| 40 | 116 | 36.9 | Cc1cc(N2C(=O)c3c(c(CF)nn3C3CC3)C2c2ccc(Cl)cc2)cn2c(C)nnc12 (stereo not drawn) [Example 159, 4-(4-chlorophenyl)-1-cyclopropyl-5-(3,8-dimethyl-[1,2,4]triazolo[4,3-a]pyridin-6-yl)-3-(fluoromethyl)-4,5-dihydropyrrolo[3,4-c]pyrazol-6(1H)-one] |
| 66.2 | 426 | 56.1 | Cc1nn(C2CC2)c2c1C(c1ccc(Cl)cc1)N(c1cn(C)c(=O)c3[nH]ccc13)C2=O (stereo not drawn) [Example 160, 4-(4-(4-chlorophenyl)-1-cyclopropyl-3-methyl-6-oxopyrrolo-[3,4-c]pyrazol-5(1H,4H,6H)-yl)-6-methyl-1H-pyrrolo[2,3-c]pyridin-7(6H)-one] |
| 66.1 | 352 | 78.5 | CNc1cc(N2C(=O)c3c(c(C)nn3C3CC3)[C@H]2c2ccc(Cl)cc2)nn2c(C)nnc12 [Example 161, (R)-4-(4-chlorophenyl)-1-cyclopropyl-3-methyl-5-(3-methyl-8-(methylamino)-[1,2,4]triazolo[4,3-b]pyridazin-6-yl)-4,5-dihydropyrrolo-[3,4-c]pyrazol-6(1H)-one] |
| 41.8 | 244 | 54.6 | COCc1nn(C2CC2)c2c1[C@@H](c1ccc(Cl)cc1)N(c1cc(C)c(=O)n(C)c1)C2=O [Example 162, (R)-4-(4-chlorophenyl)-1-cyclopropyl-5-(1,5-dimethyl-6-oxo-1,6-dihydropyridin-3-yl)-3-(methoxymethyl)-4,5-dihydropyrrolo[3,4-c]pyrazol-6(1H)-one] |
| 10.3 | 79.8 | 17.5 | COCc1nn(C2CC2)c2c1[C@@H](c1ccc(Cl)cc1)N(c1cc(C)c3nnc(C)n3c1)C2=O [Example 163, (R)-4-(4-chlorophenyl)-1-cyclopropyl-5-(3,8-dimethyl-[1,2,4]triazolo[4,3-a]pyridin-6-yl)-3-(methoxymethyl)-4,5-dihydropyrrolo-[3,4-c]pyrazol-6(1H)-one] |
| 7.69 | 98.2 | 9.6 | Cc1cc(N2C(=O)c3c(c(C4CC4)nn3C)[C@H]2c2ccc(Cl)cc2)cn2c(C)nnc12 [Example 164, (R)-4-(4-chlorophenyl)-3-cyclopropyl-5-(3,8-dimethyl-[1,2,4]triazolo[4,3-a]pyridin-6-yl)-1-methyl-4,5-dihydropyrrolo-[3,4-c]pyrazol-6(1H)-one] |
| 21.7 | 190 | 38.3 | Cc1n[nH]c2c1[C@@H](c1ccc(Cl)cc1)N(c1cc(C)c3nnc(C)n3c1)C2=O [Example 165, (R)-4-(4-chlorophenyl)-5-(3,8-dimethyl-[1,2,4]triazolo[4,3-a]pyridin-6-yl)-3-methyl-4,5-dihydropyrrolo[3,4-c]pyrazol-6(1H)-one] |
| 9.38 | 94.6 | 17.1 | Cc1cc(N2C(=O)c3c(c(CO)nn3C3CC3)[C@H]2c2ccc(Cl)cc2)cn2c(C)nnc12 [Example 166, (R)-4-(4-chlorophenyl)-1-cyclopropyl-5-(3,8-dimethyl-[1,2,4]triazolo[4,3-a]pyridin-6-yl)-3-(hydroxymethyl)-4,5-dihydropyrrolo-[3,4-c]pyrazol-6(1H)-one] |
| 27.6 | 294 | 59.6 | Cc1nn(C[C@H](O)C(F)(F)F)c2c1[C@@H](c1ccc(Cl)cc1)N(c1cc(C)c3nnc(C)n3c1)C2=O [Example 167, (R)-4-(4-chlorophenyl)-5-(3,8-dimethyl-[1,2,4]triazolo[4,3-a]pyridin-6-yl)-3-methyl-1-((S)-3,3,3-trifluoro-2-hydroxypropyl)-4,5-dihydropyrrolo-[3,4-c]pyrazol-6(1H)-one] |
| 24.1 | 105 | 35.5 | Cc1nn(C(C)C)c2c1C(c1ccc(Cl)cc1F)N(c1cc(C)c3nnc(C)n3c1)C2=O (stereo not drawn) [Example 168, 4-(4-chloro-2-fluorophenyl)-5-(3,8-dimethyl-[1,2,4]triazolo[4,3-a]pyridin-6-yl)-1-isopropyl-3-methyl-4,5-dihydropyrrolo[3,4-c]pyrazol-6(1H)-one] |
| 31.1 | 276 | 50.5 | Cc1cc(N2C(=O)c3nn(C(C)C)c(C)c3C2c2ccc(Cl)cc2F)cn2c(C)nnc12 (stereo not drawn) [Example 169, 4-(4-chloro-2-fluorophenyl)-5-(3,8-dimethyl-[1,2,4]triazolo[4,3-a]pyridin-6-yl)-2-isopropyl-3-methyl-4,5-dihydropyrrolo[3,4-c]pyrazol-6(2H)-one] |
| 7.66 | 48.5 | 13.4 | CCn1nc(C)c2c1C(=O)N(c1cc(C)c(=O)n(C)c1)C2c1ccc(Cl)cc1F (stereo not drawn) [Example 170, 4-(4-chloro-2-fluorophenyl)-5-(1,5-dimethyl-6-oxo-1,6-dihydropyridin-3-yl)-1-ethyl-3-methyl-4,5-dihydropyrrolo-[3,4-c]pyrazol-6(1H)-one] |
| 93.8 | 442 | 118 | CCn1nc2c(c1C)C(c1ccc(Cl)cc1F)N(c1cc(C)c(=O)n(C)c1)C2=O (stereo not drawn) [Example 171, 4-(4-chloro-2-fluorophenyl)-5-(1,5-dimethyl-6-oxo-1,6-dihydropyridin-3-yl)-2-ethyl-3-methyl-4,5-dihydropyrrolo[3,4-c]pyrazol-6(2H)-one] |
| 176 | 1080 | 254 | Cc1n[nH]c2c1C(c1ccc(F)cc1F)N(c1cc(C)c3nnc(C)n3c1)C2=O (stereo not drawn) [Example 172, 4-(2,4-difluorophenyl)-5-(3,8-dimethyl-[1,2,4]triazolo[4,3-a]pyridin-6-yl)-3-methyl-4,5-dihydropyrrolo[3,4-c]pyrazol-6(2H)-one] |
| 57.1 | 328 | 91.6 | COc1ncccc1-n1nc(C)c2c1C(=O)N(c1cc(C)c3nnc(C)n3c1)C2c1ccc(F)cc1F (stereo not drawn) [Example 173, 4-(2,4-difluorophenyl)-5-(3,8-dimethyl-[1,2,4]triazolo[4,3-a]pyridin-6-yl)-1-(2-methoxypyridin-3-yl)-3-methyl-4,5-dihydropyrrolo-[3,4-c]pyrazol-6(1H)-one] |
| 26.7 | 158 | 43.8 | Cc1nn(C(C)C)c2c1C(c1ccc(F)cc1F)N(c1cc(C)c3nnc(C)n3c1)C2=O (stereo not drawn) [Example 174, 4-(2,4-difluorophenyl)-5-(3,8-dimethyl-[1,2,4]triazolo[4,3-a]pyridin-6-yl)-1-isopropyl-3-methyl-4,5-dihydropyrrolo[3,4-c]pyrazol-6(1H)-one] |
| 42.2 | 192 | 66.2 | Cc1cc(N2C(=O)c3nn(C(C)C)c(C)c3C2c2ccc(F)cc2F)cn2c(C)nnc12 (stereo not drawn) [Example 175, 4-(2,4-difluorophenyl)-5-(3,8-dimethyl-[1,2,4]triazolo[4,3-a]pyridin-6-yl)-2-isopropyl-3-methyl-4,5-dihydropyrrolo-[3,4-c]pyrazol-6(2H)-one] |
| 30.3 | 145 | 55.6 | Cc1nn(C2CC2)c2c1C(c1ccc(F)cc1F)N(c1cc(C)c3nnc(C)n3c1)C2=O (stereo not drawn) [Example 176, 1-cyclopropyl-4-(2,4-difluorophenyl)-5-(3,8-dimethyl-[1,2,4]triazolo[4,3-a]pyridin-6-yl)-3-methyl-4,5-dihydropyrrolo-[3,4-c]pyrazol-6(1H)-one] |
| 67.5 | 331 | 64.4 | COc1ccccc1-n1nc(C)c2c1C(=O)N(c1cc(C)c3nnc(C)n3c1)C2c1ccc(F)cc1F (stereo not drawn) [Example 177, 4-(2,4-difluorophenyl)-5-(3,8-dimethyl-[1,2,4]triazolo[4,3-a]pyridin-6-yl)-1-(2-methoxyphenyl)-3-methyl-4,5-dihydropyrrolo-[3,4-c]pyrazol-6(1H)-one] |
| 28.2 | 137 | 42.5 | Cc1nn(C2CC2)c2c1C(c1ccc(Cl)cc1F)N(c1cc(C)c3nnc(C)n3c1)C2=O (stereo not drawn) [Example 178, 4-(4-chloro-2-fluorophenyl)-1-cyclopropyl-5-(3,8-dimethyl-[1,2,4]triazolo[4,3-a]pyridin-6-yl)-3-methyl-4,5-dihydropyrrolo[3,4-c]pyrazol-6(1H)-one] |
| 77.4 | 372 | 112 | Cc1nn(C2CC2)c2c1C(c1ccc(Cl)cc1F)N(c1cc(C)c(=O)n(C)c1)C2=O (stereo not drawn) [Example 179, 4-(4-chloro-2-fluorophenyl)-1-cyclopropyl-5-(1,5-dimethyl-6-oxo-1,6-dihydropyridin-3-yl)-3-methyl-4,5-dihydropyrrolo[3,4-c]pyrazol-6(1H)-one] |
| 68 | 266 | 81.4 | Cc1nn(C(C)C)c2c1C(c1ccc(Cl)cc1F)N(c1cc(C)c(=O)n(C)c1)C2=O (stereo not drawn) [Example 180, 4-(4-chloro-2-fluorophenyl)-5-(1,5-dimethyl-6-oxo-1,6-dihydropyridin-3-yl)-1-isopropyl-3-methyl-4,5-dihydropyrrolo[3,4-c]pyrazol-6(1H)-one] |
| 47.1 | 160 | 51.9 | CCn1nc(C)c2c1C(=O)N(c1cc(C)c3nnc(C)n3c1)C2c1ccc(F)cc1F (stereo not drawn) [Example 181, 4-(2,4-difluorophenyl)-5-(3,8-dimethyl-[1,2,4]triazolo[4,3-a]pyridin-6-yl)-1-ethyl-3-methyl-4,5-dihydropyrrolo[3,4-c]pyrazol-6(1H)-one] |
| 63.2 | 280 | 87.5 | CCn1nc2c(c1C)C(c1ccc(F)cc1F)N(c1cc(C)c3nnc(C)n3c1)C2=O (stereo not drawn) [Example 182, 4-(2,4-difluorophenyl)-5-(3,8-dimethyl-[1,2,4]triazolo[4,3-a]pyridin-6-yl)-2-ethyl-3-methyl-4,5-dihydropyrrolo-[3,4-c]pyrazol-6(2H)-one] |
